In patent US7709516B2, “Helix 12 directed non-steroidal antiandrogens” (Endorecherche, Inc., priority 2005, dated 2010):
Where two headings read alike, the source gives them in different places.

Experiments:
[1] = tested on: rat prostate, seminal vesicle, levator ani muscle; experiment: Systemic antiandrogenic activity in orchidectomized immature male rats with DHT implant; format: in vivo; conditions: for inhibition in vivo at 0.5 mg: Rattus norvegicus, 168 h; for Prostate % inhibition / Lev Ani % inhibition / SV % inhibition: Table 2
[2] = target: T1, Human Androgen Receptor (Homo sapiens, UniProt P10275); experiment: Androgen receptor binding assay ([3H]R1881, HAP) in cytosol of HEK-293 cells transfected with hAR; conditions: relative to R1881 = 100, transfected cells
T1 sequence (P10275 1-920): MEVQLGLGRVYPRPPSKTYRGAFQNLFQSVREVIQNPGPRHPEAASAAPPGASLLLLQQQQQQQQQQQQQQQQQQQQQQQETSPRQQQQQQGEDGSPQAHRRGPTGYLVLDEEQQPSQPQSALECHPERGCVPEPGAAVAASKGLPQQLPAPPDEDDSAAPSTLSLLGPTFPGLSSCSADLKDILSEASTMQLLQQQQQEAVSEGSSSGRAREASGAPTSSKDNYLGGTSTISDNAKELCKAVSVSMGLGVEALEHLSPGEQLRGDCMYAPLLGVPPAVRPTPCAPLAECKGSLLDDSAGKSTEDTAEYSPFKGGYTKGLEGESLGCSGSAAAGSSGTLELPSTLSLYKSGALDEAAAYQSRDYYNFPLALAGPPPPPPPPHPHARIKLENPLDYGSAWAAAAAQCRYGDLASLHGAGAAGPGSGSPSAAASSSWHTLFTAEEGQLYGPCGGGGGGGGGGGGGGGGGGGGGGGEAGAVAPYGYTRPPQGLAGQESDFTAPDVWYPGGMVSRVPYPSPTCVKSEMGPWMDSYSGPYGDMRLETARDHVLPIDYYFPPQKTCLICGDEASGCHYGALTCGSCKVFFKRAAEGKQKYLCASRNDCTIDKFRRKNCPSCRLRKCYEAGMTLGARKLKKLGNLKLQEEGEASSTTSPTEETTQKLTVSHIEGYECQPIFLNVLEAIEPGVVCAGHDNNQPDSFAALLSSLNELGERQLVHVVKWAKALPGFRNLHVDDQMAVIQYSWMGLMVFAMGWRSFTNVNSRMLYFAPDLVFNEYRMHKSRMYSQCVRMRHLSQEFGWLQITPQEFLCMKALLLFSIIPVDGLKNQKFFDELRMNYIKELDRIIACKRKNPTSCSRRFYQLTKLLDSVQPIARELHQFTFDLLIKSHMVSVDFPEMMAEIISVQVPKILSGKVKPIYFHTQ

[3] = tested on: Shionogi mouse mammary carcinoma cells; experiment: Androgenic/antiandrogenic activity: inhibition of DHT-stimulated Shionogi cell number; format: cell-based; conditions: DHT-stimulated Shionogi cell number
[4] = read-out: Prostate % inhibition
[5] = Mus musculus, Table 2, read-out: Shionogi Antiandrogenic Activity IC50
[6] = rat +DHT, s.c. or p.o. (route not marked), 0.5 mg/animal daily 7 days
[7] = rat +DHT, s.c. or p.o. (route not marked), levator ani, 0.5 mg/animal daily 7 days
[8] = rat +DHT, s.c. or p.o. (route not marked), seminal vesicle, 0.5 mg/animal daily 7 days
[9] = Mus musculus, read-out: Shionogi Antiandrogenic Activity IC50, Table 2
[10] = read-out: Lev Ani % inhibition, Table 2, rat +DHT, s.c. or p.o. (route not marked), levator ani, 0.5 mg/animal daily 7 days
[11] = read-out: Prostate % inhibition, Table 2, rat +DHT, s.c. or p.o. (route not marked), 0.5 mg/animal daily 7 days
[12] = read-out: SV % inhibition, Table 2, rat +DHT, s.c. or p.o. (route not marked), seminal vesicle, 0.5 mg/animal daily 7 days
[13] = read-out: Lev Ani % inhibition, Table 1, rat +DHT, s.c. or p.o. (route not marked), levator ani, 0.5 mg/animal daily 7 days
[14] = read-out: Prostate % inhibition, Table 1, rat +DHT, s.c. or p.o. (route not marked in cell), 0.5 mg/animal daily 7 days
[15] = read-out: SV % inhibition, Table 1, rat +DHT, s.c. or p.o. (route not marked), seminal vesicle, 0.5 mg/animal daily 7 days
[16] = Mus musculus, read-out: Shionogi Antiandrogenic Activity IC50, Table 1
[17] = Prostate cell, po, read-out: Lev Ani % inhibition, Table 1, rat +DHT, p.o, levator ani, 0.5 mg/animal daily 7 days
[18] = Prostate cell, po, read-out: SV % inhibition, Table 1, rat +DHT, p.o, seminal vesicle, 0.5 mg/animal daily 7 days
[19] = po, read-out: Prostate % inhibition, Table 1, rat +DHT, p.o, 0.5 mg/animal daily 7 days

| SMILES | Human Androgen Receptor Binding (%) RBA R1881 = 100 ([2]; Table 2) [%] | IC50 [3, 9] [µM] | inhibition in vivo at 0.5 mg [1, 13] [%] | inhibition in vivo at 0.5 mg [1, 14] [%] | inhibition in vivo at 0.5 mg [1, 15] [%] | Human Androgen Receptor Binding (%) RBA R1881 = 100 ([2]; Table 1) [%] | IC50 [3, 16] [µM] | also measured |
| --- | --- | --- | --- | --- | --- | --- | --- | --- |
| Cc1cc(CN2CCOCC2)ccc1OCCC1(O)CCN(c2ccc(C#N)c3ccccc23)CC1 [EM-7676] | 0.3 | – | – | – | – | – | – | inhibition in vivo at 0.5 mg ([1]; read-out: Lev Ani % inhibition): 0%; inhibition in vivo at 0.5 mg [1, 4]: 0%; inhibition in vivo at 0.5 mg ([1]; read-out: SV % inhibition): 3%; IC50 [3, 5]: 0.147 µM |
| Cc1cc(CN2CCCC2)ccc1OCCC1(O)CCN(c2ccc(C#N)c(Cl)c2)CC1 [EM-7678] | 3.5 | 0.0138 | – | – | – | – | – | Prostate % inhibition [1, 6]: 7%; Lev Ani % inhibition [1, 7]: 9%; SV % inhibition [1, 8]: 10% |
| CCC(NC1CCCCC1)c1ccc(COCCN2CCN(c3ccc(C#N)c(C(F)(F)F)c3)CC2)cc1 (stereo not drawn) [EM-7727] | <1.0 | 0.0704 | – | – | – | – | – | inhibition in vivo at 0.5 mg [1, 10]: 0%; inhibition in vivo at 0.5 mg [1, 11]: 0%; inhibition in vivo at 0.5 mg [1, 12]: 8% |
| Cc1cc(CN2CCCC2)ccc1OCCC1(O)CCN(c2ccc(C#N)c(Cl)c2)CC1 [EM-7735] | 9.6 | – | – | – | – | – | – | Prostate % inhibition [1, 6]: 0%; Lev Ani % inhibition [1, 7]: 29%; SV % inhibition [1, 8]: 23%; IC50 ([3]; read-out: Shionogi Antiandrogenic Activity IC50, Table 2): 0.0079 µM |
| CCC(c1ccc(OCCC2(O)CCN(c3ccc(C#N)c4ccccc34)CC2)cc1)N1CCCC1 (stereo not drawn) [EM-7738] | 10.5 | – | – | – | – | – | – | inhibition in vivo at 0.5 mg ([1]; read-out: Lev Ani % inhibition): 10%; inhibition in vivo at 0.5 mg [1, 4]: 0%; inhibition in vivo at 0.5 mg ([1]; read-out: SV % inhibition): 16%; IC50 [3, 5]: 0.0183 µM |
| Cc1cc(CN2CCCC2)ccc1OCCCN1C(=S)N(c2ccc(C#N)c3ccccc23)C(=O)C1(C)C [EM-7775] | – | – | 10 | 0 | 25 | 13.2 | 0.0605 | – |
| Cc1cc(CN2CCCC2C)ccc1OCCC1(O)CCN(c2ccc(C#N)c(Cl)c2)CC1 (stereo not drawn) [EM-7791] | 1.0 | 0.0205 | – | – | – | – | – | inhibition in vivo at 0.5 mg [1, 10]: 14%; inhibition in vivo at 0.5 mg [1, 11]: 0%; inhibition in vivo at 0.5 mg [1, 12]: 29% |
| CCC(CC)NC(CC)c1ccc(COCCN2CCN(c3ccc(C#N)c(C(F)(F)F)c3)CC2)cc1 (stereo not drawn) [EM-7792] | <1.0 | 0.0829 | – | – | – | – | – | inhibition in vivo at 0.5 mg [1, 10]: 7%; inhibition in vivo at 0.5 mg [1, 11]: 21%; inhibition in vivo at 0.5 mg [1, 12]: 0% |
| CC1(C)C(=O)N(c2ccc(C#N)c(Cl)c2)C(=S)N1CCCOc1ccc(CNC2CCCC2)cc1 [EM-7819] | – | – | 44 | 54 | 80 | 12.9 | 0.0083 | – |
| CN(C)Cc1ccc(OCCCN2C(=S)N(c3ccc(C#N)c(Cl)c3)C(=O)C2(C)C)cc1 [EM-7821] | – | – | 32 | 50 | 75 | 6.1 | 0.0052 | – |
| CC(C)NCc1ccc(OCCCN2C(=S)N(c3ccc(C#N)c(Cl)c3)C(=O)C2(C)C)cc1 [EM-7822] | – | – | 60 | 53 | 82 | 4.9 | 0.0059 | – |
| CC(C)NCc1ccc(OCCCN2C(=S)N(c3ccc(C#N)c(C(F)(F)F)c3)C(=O)C2(C)C)nc1 [EM-7848] | – | – | 68 | 51 | 86 | 0.5 | 0.0114 | – |
| CC(C)NCc1ccc(OCCCN2C(=S)N(c3ccc(C#N)c(C(F)(F)F)c3)C(=O)C2(C)C)c(F)c1 [EM-7918] | – | – | 53 | 44 | 64 | 16.9 | 0.0066 | – |
| CC(C)NCc1ccc(OCCCN2C(=S)N(c3ccc(C#N)c(C(F)(F)F)c3)C(=O)C2(C)C)c(Cl)c1 [EM-7919] | – | – | 9 | 28 | 53 | 29.0 | 0.0067 | – |
| CC(C)NCc1ccc(OCCCN2C(=S)N(c3ccc(C#N)c(C(F)(F)F)c3)C(=O)C2(C)C)cn1 [EM-7926] | – | – | 14 | 44 | 72 | 1.5 | 0.0079 | – |
| CN(C)Cc1ccc(OCCCN2C(=S)N(c3ccc(C#N)c(C(F)(F)F)c3)C(=O)C2(C)C)cn1 [EM-7927] | – | – | 61 | 32 | 55 | 2.4 | 0.0069 | – |
| COc1cc(CNC(C)C)ccc1OCCCN1C(=S)N(c2ccc(C#N)c(C(F)(F)F)c2)C(=O)C1(C)C [EM-7930] | – | – | 41 | 47 | 71 | 0.5 | 0.0095 | – |
| CC(C)NS(=O)(=O)c1ccc(OCCCN2C(=S)N(c3ccc(C#N)c(C(F)(F)F)c3)C(=O)C2(C)C)cc1 [EM-7957] | – | – | 75 | 44 | 72 | 5.9 | 0.0176 | – |
| CCC(c1ccc(OCCC2(O)CCN(c3ccc(C#N)c(C(F)(F)F)c3)CC2)c(C)c1)N1CCCC1 (stereo not drawn) [EM-8003] | 6.4 | 0.0223 | – | – | – | – | – | inhibition in vivo at 0.5 mg [1, 10]: 44%; inhibition in vivo at 0.5 mg [1, 11]: 11%; inhibition in vivo at 0.5 mg [1, 12]: 35% |
| CCC(CC)NC(CC)c1ccc(OCCC2(O)CCN(c3ccc(C#N)c(C(F)(F)F)c3)CC2)c(C)c1 (stereo not drawn) [EM-8006] | 8.1 | 0.0308 | – | – | – | – | – | inhibition in vivo at 0.5 mg [1, 10]: 40%; inhibition in vivo at 0.5 mg [1, 11]: 14%; inhibition in vivo at 0.5 mg [1, 12]: 32% |
| CC1(C)C(=O)N(c2ccc(C#N)c(C(F)(F)F)c2)C(=S)N1CCCOc1ccc(S(C)(=O)=O)cc1 [EM-8056] | – | – | – | – | – | 6.7 | 0.012 | inhibition in vivo at 0.5 mg [1, 17]: 80%; inhibition in vivo at 0.5 mg [1, 18]: 91%; inhibition in vivo at 0.5 mg [1, 19]: 49% |
| N#Cc1ccc(N2CCC(O)(CCOc3ccc(-c4cccnc4)c(CN4CCCC4)c3)CC2)cc1C(F)(F)F [EM-8058] | 1.5 | 0.0565 | – | – | – | – | – | inhibition in vivo at 0.5 mg [1, 10]: 6%; inhibition in vivo at 0.5 mg [1, 11]: 0%; inhibition in vivo at 0.5 mg [1, 12]: 2% |
| N#Cc1ccc(N2CCC(O)(CCOc3cccc(CN4CCCC4)c3)CC2)cc1C(F)(F)F [EM-8059] | 1.0 | 0.0689 | – | – | – | – | – | inhibition in vivo at 0.5 mg [1, 10]: 0%; inhibition in vivo at 0.5 mg [1, 11]: 1%; inhibition in vivo at 0.5 mg [1, 12]: 21% |
| CC1(C)C(=O)N(c2ccc(C#N)c(C(F)(F)F)c2)C(=S)N1CCCOc1ccc(-n2ccnc2)cc1 [EM-8062] | – | – | – | – | – | 15.6 | 0.0066 | inhibition in vivo at 0.5 mg [1, 17]: 63%; inhibition in vivo at 0.5 mg [1, 18]: 79%; inhibition in vivo at 0.5 mg [1, 19]: 37% |
